These results are taken from EP2457441A1, “Insecticide composition” (priority 2010, dated 2012).

The conditions of series [1]: species and route not given; cited from earlier work.
A short description of series [2]: Toxicity (LD50/DL50). The note with it: comparison of LD50 values.

Broadly, the LD50 is the dose expected to kill half of the subjects tested. In the case of common salt, the LD50 in series [1] is on record as 3000 mg/kg.

With `COC(C)(C)CCC[C@H](C)C/C=C/C(C)=C/C(=O)OC(C)C` [S-METHOPRENE], in series [1], the DL50 result is reported as “above 10000 mg/kg”.

In the case of `CCOc1ccc(C(C)(C)COCc2cccc(Oc3ccccc3)c2)cc1` [ETOFENPROX], in series [1], the LD50 is reported as 42880 mg/kg. In series [2], the “toxicity relative to common salt” value was “about 15 times less” and the “toxicity relative to sugar” value is reported as “two times less”.
